{"source": "patent US7026339B2", "about": "“Inhibitors of HCV NS5B polymerase” (priority 2003, dated 2006)"}
{"system": "HuH-7 replicon cells 5–15 and 9–13 (HCV replication)", "assay": "Inhibition of viral replication in HuH-7 replicon cells (HCV RNA / GAPDH RNA by multiplex RT-PCR)", "assay_type": "cell-based", "details": "Hepatitis C virus, 72 h; inhibiting 50% of replication; HuH-7 replicon cells, 3 days; read-out: IC50", "summary_of_the_method": "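HCV and GAPDH RNA were measured by multiplex TaqMan RT-PCR (HCV 5′ untranslated region) after 3-day compound treatment at 37 °C, final 100 μM–1 μM in 1% DMSO. Cells were plated 24 h beforehand at 7×10^3/well. Read-out: HCV-to-GAPDH ratio expressed as percent control versus untreated cells.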", "units": {"IC50": "µM"}}
{"compound": "O=C(CSc1ccccc1)N/N=C/c1ccccc1OS(=O)(=O)c1ccc(C(F)(F)F)cc1", "note": "[Compound 59, 2-((E)-{2-[2-(phenylthio)acetyl]hydrazono}methyl)-phenyl 4-(trifluoromethyl)benzenesulfonate]", "IC50": "< 5"}
{"compound": "O=C(Cc1ccccc1)N/N=C/c1ccccc1OS(=O)(=O)c1ccc(F)c(Cl)c1", "note": "[Compound 120, 2-{(E)-[2-(2-phenylacetyl)hydrazono]methyl}phenyl 3-chloro-4-fluorobenzenesulfonate]", "IC50": "5 to 50"}
{"compound": "O=C(Cc1cccc(Br)c1)N/N=C/c1ccccc1NS(=O)(=O)c1ccc(C(F)(F)F)cc1", "note": "[Compound 241, N-[2-((E)-{[(3-bromophenyl)acetyl]hydrazono}methyl)-phenyl]-4-(trifluoromethyl)benzenesulfonamide]", "IC50": "> 50"}
{"compound": "COc1cccc(CC(=O)N/N=C/c2ccccc2OS(=O)(=O)c2ccc(Br)s2)c1", "note": "[Compound 190, 2-((E)-{2-[2-(3-methoxyphenyl)acetyl]hydrazono}methyl)-phenyl 5-bromothiophene-2-sulfonate]", "IC50": "< 5"}
{"compound": "CN(c1ccccc1/C=N/NC(=O)Cc1cccc(Cl)c1)S(=O)(=O)c1ccc(C(F)(F)F)cc1", "note": "[Compound 244, N-[2-((E)-{[(3-chlorophenyl)acetyl]hydrazono}methyl)-phenyl]-N-methyl-4-(trifluoromethyl)benzenesulfonamide]", "IC50": "< 5"}
{"compound": "COc1cccc(CC(=O)N/N=C/c2cc(OC)ccc2OS(=O)(=O)c2ccc(C)cc2)c1", "note": "[Compound 156, 4-methoxy-2-((E)-{[(3-methoxyphenyl)acetyl]hydrazono}methyl)-phenyl 4-methylbenzenesulfonate]", "IC50": "< 5"}
{"compound": "COc1cccc(CC(=O)N/N=C/c2ccccc2OS(=O)(=O)c2ccc(Oc3cccnc3)cc2)c1", "note": "[Compound 217, 2-((E)-{2-[2-(3-methoxyphenyl)acetyl]hydrazono}methyl)-phenyl 4-(pyridin-3-yloxy)benzenesulfonate]", "IC50": "5 to 50"}
{"compound": "O=C(Cc1cccnc1)N/N=C/c1ccccc1OS(=O)(=O)c1ccc(C(F)(F)F)cc1", "note": "[Compound 6, 2-{(E)-[2-(2-pyridin-3-ylacetyl)hydrazono]methyl}phenyl 4-(trifluoromethyl)benzenesulfonate]", "IC50": "< 5"}
{"compound": "COc1cccc(CC(=O)N/N=C(\\C)c2ccc(F)cc2OS(=O)(=O)c2ccc(C(F)(F)F)cc2)c1", "note": "[Compound 222, 5-fluoro-2-{(1E)-N-[(3-methoxyphenyl)acetyl]ethanehydrazonoyl}-phenyl 4-(trifluoromethyl)benzenesulfonate]", "IC50": "> 50"}
{"compound": "O=C(Cc1ccccc1)N/N=C/c1ccccc1OS(=O)(=O)c1ccc(Cl)cc1", "note": "[Compound 117, 2-{(E)-[2-(2-phenylacetyl)hydrazono]methyl}phenyl 4-chlorobenzenesulfonate]", "IC50": "< 5"}
{"compound": "O=C(N/N=C/c1ccccc1OS(=O)(=O)c1ccc(C(F)(F)F)cc1)c1ccccc1Cl", "note": "[Compound 73, 2-{(E)-[2-(2-chlorobenzoyl)hydrazono]methyl}phenyl 4-(trifluoromethyl)benzenesulfonate]", "IC50": "< 5"}
{"compound": "CN(c1ccccc1/C=N/NC(=O)Cc1c[nH]cn1)S(=O)(=O)c1ccc(C(F)(F)F)cc1", "note": "[Compound 249, N-(2-{(E)-[(1H-imidazol-4-ylacetyl)hydrazono]methyl}phenyl)-N-methyl-4-(trifluoromethyl)benzenesulfonamide]", "IC50": "< 5"}
{"compound": "O=C(Cc1ccccc1)N/N=C/c1ccccc1OS(=O)(=O)c1ccc(F)c(F)c1", "note": "[Compound 118, 2-{(E)-[2-(2-phenylacetyl)hydrazono]methyl}phenyl3,4-difluorobenzenesulfonate]", "IC50": "5 to 50"}
{"compound": "COc1cccc(CC(=O)N/N=C/c2ccccc2OS(=O)(=O)c2cnn(-c3ccccc3)c2C)c1", "note": "[Compound 188, 2-((E)-{2-[2-(3-methoxyphenyl)acetyl]hydrazono}methyl)-phenyl 5-methyl-1-phenyl-1H-pyrazole-4-sulfonate]", "IC50": "< 5"}
{"compound": "COc1cccc(CC(=O)N/N=C/c2ccccc2OS(=O)(=O)c2cc(Cl)sc2Cl)c1", "note": "[Compound 187, 2-((E)-{2-[2-(3-methoxyphenyl)acetyl]hydrazono}methyl)-phenyl 2,5-dichlorothiophene-3-sulfonate]", "IC50": "< 5"}
{"compound": "O=C(N/N=C/c1ccccc1OS(=O)(=O)c1ccc(C(F)(F)F)cc1)c1c(F)cccc1C(F)(F)F", "note": "[Compound 103, 2-((E)-{2-[2-fluoro-6-(trifluoromethyl)benzoyl]hydrazono}methyl)-phenyl 4-(trifluoromethyl)benzenesulfonate]", "IC50": "< 5"}
{"compound": "COc1ccccc1CC(=O)N/N=C/c1ccccc1OS(=O)(=O)c1ccc(C(F)(F)F)cc1", "note": "[Compound 36, 2-((E)-{2-[2-(2-methoxyphenyl)acetyl]hydrazono}methyl)-phenyl 4-(trifluoromethyl)benzenesulfonate]", "IC50": "5 to 50"}
{"compound": "O=C(Cc1ccccc1)N/N=C/c1ccccc1OS(=O)(=O)c1ccccc1", "note": "[Compound 108, 2-{(E)-[2-(2-phenylacetyl)hydrazono]methyl}phenylbenzenesulfonate]", "IC50": "> 50"}
{"compound": "COc1cccc(CC(=O)N/N=C/c2ccccc2OS(=O)(=O)c2ccc(-c3cc(C(F)(F)F)on3)s2)c1", "note": "[Compound 192, 2-((E)-{2-[2-(3-methoxyphenyl)acetyl]hydrazono}methyl)-phenyl 5-[5-(trifluoromethyl)isoxazol-3-yl]thiophene-2-sulfonate]", "IC50": "< 5"}
{"compound": "COc1cccc(CC(=O)N/N=C/c2ccccc2OS(=O)(=O)c2ccc(Oc3ccccc3)cc2)c1", "note": "[Compound 191, 2-((E)-{2-[2-(3-methoxyphenyl)acetyl]hydrazono}methyl)-phenyl 4-phenoxybenzenesulfonate]", "IC50": "> 50"}
{"compound": "COc1cccc(CC(=O)N/N=C/c2ncccc2OS(=O)(=O)c2ccc(C(F)(F)F)cc2)c1", "note": "[Compound 214, 2-((E)-{2-[2-(3-methoxyphenyl)acetyl]hydrazono}methyl)-pyridin-3-yl 4-(trifluoromethyl)benzenesulfonate]", "IC50": "5 to 50"}
{"compound": "CC(C)(C)c1ccc(S(=O)(=O)Oc2ccccc2/C=N/NC(=O)Cc2ccccc2)cc1", "note": "[Compound 121, 2-{(E)-[2-(2-phenylacetyl)hydrazono]methyl}phenyl 4-tert-butylbenzenesulfonate]", "IC50": "< 5"}
{"compound": "O=C(Cc1cccc(Cl)c1)N/N=C/c1cccnc1OS(=O)(=O)c1ccc(C(F)(F)F)cc1", "note": "[Compound 215, 3-((E)-{2-[2-(3-chlorophenyl)acetyl]hydrazono}methyl)-pyridin-2-yl 4-(trifluoromethyl)benzenesulfonate]", "IC50": "> 50"}
{"compound": "O=C(Cc1ccccc1)N/N=C/c1ccccc1OS(=O)(=O)c1ccccc1Cl", "note": "[Compound 132, 2-{(E)-[2-(2-phenylacetyl)hydrazono]methyl}phenyl 2-chlorobenzenesulfonate]", "IC50": "> 50"}
{"compound": "O=S(=O)(Cc1ccccc1)N/N=C/c1ccccc1OS(=O)(=O)c1ccc(C(F)(F)F)cc1", "note": "[Compound 251, 2-{(E)-[2-(benzylsulfonyl)hydrazono]methyl}phenyl4-(trifluoromethyl)benzenesulfonate]", "IC50": "5 to 50"}
{"compound": "O=C(N/N=C/c1ccccc1OS(=O)(=O)c1ccc(C(F)(F)F)cc1)c1ccccc1C(F)(F)F", "note": "[Compound 104, 2-((E)-{2-[2-(trifluoromethyl)benzoyl]hydrazono}methyl)-phenyl 4-(trifluoromethyl)benzenesulfonate]", "IC50": "< 5"}
{"compound": "O=C(Cc1ccccc1)N/N=C/c1ccccc1OS(=O)(=O)c1cccc2ccccc12", "note": "[Compound 136, 2-{(E)-[2-(2-phenylacetyl)hydrazono]methyl}phenylnaphthalene-1-sulfonate]", "IC50": "> 50"}
{"compound": "O=C(Cc1ccccc1)N/N=C/c1ccccc1OS(=O)(=O)c1cc(Cl)cc(Cl)c1", "note": "[Compound 126, 2-{(E)-[2-(2-phenylacetyl)hydrazono]methyl}phenyl3,5-dichlorobenzenesulfonate]", "IC50": "5 to 50"}
{"compound": "O=C(CCCc1ccccc1)N/N=C/c1ccccc1OS(=O)(=O)c1ccc(C(F)(F)F)cc1", "note": "[Compound 46, 2-{(E)-[2-(4-phenylbutanoyl)hydrazono]methyl}phenyl4-(trifluoromethyl)benzenesulfonate]", "IC50": "5 to 50"}
{"compound": "COc1cccc(CC(=O)N/N=C/c2ccccc2OS(=O)(=O)c2ccc(-c3cnco3)s2)c1", "note": "[Compound 200, 2-((E)-{2-[2-(3-methoxyphenyl)acetyl]hydrazono}methyl)-phenyl 5-(1,3-oxazol-5-yl)thiophene-2-sulfonate]", "IC50": "< 5"}
{"compound": "O=C(CC12CC3CC(CC(C3)C1)C2)N/N=C/c1ccccc1OS(=O)(=O)c1ccc(C(F)(F)F)cc1", "note": "[Compound 94, 2-((E)-{2-[2-(1-adamantyl)acetyl]hydrazono}methyl)phenyl4-(trifluoromethyl)benzenesulfonate]", "IC50": "> 50"}
{"compound": "CC(C)c1ccc(S(=O)(=O)Oc2ccccc2/C=N/NC(=O)Cc2ccccc2)cc1", "note": "[Compound 135, 2-{(E)-[2-(2-phenylacetyl)hydrazono]methyl}phenyl 4-isopropylbenzenesulfonate]", "IC50": "< 5"}
{"compound": "O=C(Cc1ccccc1)N/N=C/c1ccccc1OS(=O)(=O)c1ccc(F)cc1F", "note": "[Compound 133, 2-{(E)-[2-(2-phenylacetyl)hydrazono]methyl}phenyl2,4-difluorobenzenesulfonate]", "IC50": "> 50"}
{"compound": "O=C(Cc1nc(-c2cnccn2)no1)N/N=C/c1ccccc1OS(=O)(=O)c1ccc(C(F)(F)F)cc1", "note": "[Compound 82, 2-((E)-{2-[2-(3-pyrazin-2-yl-1,2,4-oxadiazol-5-yl)acetyl]hydrazono}methyl)phenyl 4-(trifluoromethyl)benzenesulfonate]", "IC50": "5 to 50"}
{"compound": "COc1cccc(CC(=O)N/N=C/c2ccccc2OS(=O)(=O)c2ccc(OC)c(OC)c2)c1", "note": "[Compound 152, 2-((E)-{2-[2-(3-methoxyphenyl)acetyl]hydrazono}methyl)-phenyl 3,4-dimethoxybenzenesulfonate]", "IC50": "< 5"}
{"compound": "O=C(Cc1ccncc1)N/N=C/c1ccccc1OS(=O)(=O)c1ccc(C(F)(F)F)cc1", "note": "[Compound 1, 2-{(E)-[2-(2-pyridin-4-ylacetyl)-hydrazono]methyl}phenyl 4-(trifluoromethyl)benzenesulfonate]", "IC50": "5 to 50"}
